The source of these data is patent publication US12582784B2, “Dry powder inhalation system” (MannKind Corporation, priority 2008, dated 2026).

On the set-up of data set [1]: species or system human (subjects with type 1 diabetes mellitus). The conditions noted are these: human, in vivo, sc. Here is the method:
The study was conducted in subjects with type 1 diabetes mellitus. This study was conducted to determine if a formulation for pulmonary delivery comprising insulin and a diketopiperazine in the formulation, 1) could be delivered consistently using different dosage strengths and 2) if linearity of dosing could be achieved with proportional doses, given that interchangeability of dosage strengths can be important for patient safety. […] Therefore, an important goal in the development of the pulmonary delivery system with a formulation comprising insulin and FDKP (insulin-FDKP) was to achieve dose linearity across the therapeutic dose range.
In the study, comparisons of insulin exposure following inhalation of two 15 U cartridges of an insulin inhalation powder to one 30 U cartridge of insulin inhalation powder were made. In addition, insulin bioavailability from a 30 U cartridge of insulin-FDKP inhalation powder was calculated, compared to a 10-IU subcutaneous (sc) injection of insulin lispro (rapid acting analogue [RAA]).
A phase I, open-label, single-dose, repeat administration study in subjects with type 1 diabetes (T1DM) was conducted to assess the pharmacokinetic profile or PK of 30 U of insulin-FDKP dosed as a single 30 U cartridge and compared to two 15 U cartridges administered with the present inhalation system. […]

The nature of data set [2]: Baseline-corrected glucose infusion rate (GIR) evaluation under hyperinsulinemic-euglycemic clamp. The class given is in vivo, human (subjects with type 1 diabetes mellitus). The conditions noted are these: 10 IU sc RAA. Here is the method: A phase I, open-label, single-dose, repeat administration study in subjects with type 1 diabetes (T1DM) was conducted to assess the pharmacokinetic profile or PK of 30 U of insulin-FDKP dosed as a single 30 U cartridge and compared to two 15 U cartridges administered with the present inhalation system. A 10 U subcutaneous injection of the rapid acting insulin analogue (RAA, HUMALOG® (Eli Lilly and Company, Indianapolis, IN)) was also tested. Subjects (age: 19-61 yrs) were randomized to 1 of 6 sequences. Fasted subjects received insulin-FDKP or RAA 4 to 6 hrs after initiating a hyperinsulinemic-euglycemic clamp. Randomization determined the order of insulin-FDKP dosing (first 2 treatment (tx) visits), and the location of the RAA injection (abdomen, arm or leg; 3rd tx visit). After dosing blood samples were taken and analyzed for insulin, insulin lispro and fumaryl diketopiperazine (FDKP (insulin-FDKP tx only)). When studying insulin-FDKP, the basal insulin infusion was performed with HUMALOG®, and when studying HUMALOG®, regular human insulin was used. The analytical methodologies enabled the independent measurement of each insulin tested.
This study also evaluated the effects of the dosages administered and the glucose infusion rate (GIR) requirements of the patients in the study. FIG. 19 illustrates the results of the GIR evaluation. […]

For insulin lispro [Humalog], the “Insulin PK parameters tmax” value in data set [1] came to 1 h. Further, in data set [2], the “time after administration at which GIR peaked” value is on record as “approximately 150 minutes” and the “time at which GIR returned toward baseline” value was about 300 min.
